Patent US4308181A, “Polypeptide compositions” (American Home Products Corporation, priority 1980, dated 1981)
Residues, ends and D or L forms follow the SMILES beside them.

Test system: T lymphocytes isolated from spleens of male CBA/J or NZB mice
Experiment: T lymphocyte proliferation, 3H-thymidine uptake
Type: cell-based
Settings: 48 h culture
Procedure: The activity of the compounds of the Examples is determined according to the following procedure:
T lymphocytes are isolated from spleens of male CBA/J or NZB mice. Cell homogenates are prepared in Hank's balanced salt solution (HBSS). After removal of larger particles and repeated washing of the cells in HBSS they are suspended in minimum essential medium (MEM) and passed through a glass wool column to remove macrophages. The cells are then incubated on a nylon wool column at 37° C., 95% air, 5% CO2, for 45 minutes. The non-adherant T lymphocytes are then eluted from the column, counted, and adjusted to 20×10^6 cells/ml. 50 μl. of cells are cultured (37° C., 95% air, 5% CO2) with compound, for 48 hours before addition of 0.5 μCi. of 3H-thymidine for the last 16 hours of culture. The total volume of the culture system is 200 μ l. The cells are then harvested on a multiple automatic sample harvester (MashII), the glass fiber filter disks placed in 10 ml. of xylene base scintillation fluid, and counted for 1 minute in a liquid scintillation counter. Results are reported as CPM+SE. Comparisons are made between counts obtained with control cultures and cultures containing compound and a determination made as to whether the compounds are active at the dosage tested.

[1] = 0.75 ng/culture, run with control 19,275 ± 1298
[2] = 1.5 ng/culture, run with control 9,876 ± 951
[3] = 1.5 ng/culture, run with control 19,275 ± 1298
[4] = 6.0 ng/culture, run with control 9,876 ± 951
[5] = 6.0 ng/culture, run with control 19,275 ± 1298
[6] = 25 ng/culture, run with control 9,876 ± 951
[7] = 100 ng/culture, run with control 9,876 ± 951

Structure (SMILES) | H-Thymidine Uptake CPM + S.E. [1] | H-Thymidine Uptake CPM + S.E. [2] | H-Thymidine Uptake CPM + S.E. [3] | H-Thymidine Uptake CPM + S.E. [4] | H-Thymidine Uptake CPM + S.E. [5] | H-Thymidine Uptake CPM + S.E. [6] | H-Thymidine Uptake CPM + S.E. [7] | H-Thymidine Uptake CPM + S.E. (25 ng/culture, run with control 19,275 ± 1298)
CC(=O)NCC(=O)N[C@@H](CO)C(=O)N[C@@H](Cc1c[nH]cn1)C(=O)N[C@@H](CC(C)C)C(N)=O [Ac--Gly--Ser--His--Leu--NH2, N-acetylglycyl-L-seryl-L-histidyl-L-leucinaminde, acetate] (Ac-GSHL-NH2) | 41,019 ± 6047 CPM | 15,028 ± 1178 CPM | 48,033 ± 5499 CPM | 19,423 ± 1031 CPM | 38,254 ± 7188 CPM | 19,433 ± 3092 CPM | 20,409 ± 4081 CPM | 
CC(=O)N[C@@H](CO)C(=O)N[C@@H](Cc1c[nH]cn1)C(=O)N[C@@H](CC(C)C)C(=O)N[C@H](C(N)=O)C(C)C.CC(=O)O [Ac--Ser--His--Leu--Val--NH2, N-acetylseryl-L-histidyl-L-leucyl-L-valinamide, acetate] (Ac-SHLV-NH2) | 26,137 ± 6158 CPM | 30,925 ± 3256 CPM | 32,646 ± 2284 CPM | 26,741 ± 3049 CPM | 30,425 ± 8896 CPM | 28,206 ± 2233 CPM | 20,758 ± 3027 CPM | 32,278 ± 5373 CPM
